# Several values for one entry are separate records, joined by “and”; a condition that tells them apart may be missing. Equal values may be shown once.
# Legend:
# Assay in all cases: radiometric filter-binding kinase assay, Kinase HotSpot
# Conditions in all cases: compound 0.5 µM; ATP 10 µM
# MAPKAPK2 (human) = MAPKAPK2 (human) (UniProt P49137)
# SRMS (human) = SRMS (human) (UniProt Q9H3Y6)
# PDGFRB (human) = PDGFRB (human) (UniProt P09619)
# NTRK2 (human) = NTRK2 (human) (UniProt Q16620)
# PRKG2 (human) = PRKG2 (human) (UniProt Q13237)
# CSNK1A1 (human) = CSNK1A1 (human) (UniProt P48729)
# MLTK (human) = MLTK (human) (UniProt Q9NYL2)
# AXL (human) = AXL (human) (UniProt P30530)
# NTRK3 (human) = NTRK3 (human) (UniProt Q16288)
# FGFR3 (human) = FGFR3 (human) (UniProt P22607)
# IRAK4 (human) = IRAK4 (human) (UniProt Q9NWZ3)
# NEK1 (human) = NEK1 (human) (UniProt Q96PY6)
# PAK4 (human) = PAK4 (human) (UniProt O96013)
# CDK9 CCNT1 (human) = CDK9 CCNT1 (human) (UniProt P50750+O60563)
# TLK2 (human) = TLK2 (human) (UniProt Q86UE8)
# ADRBK2 (human) = ADRBK2 (human) (UniProt P35626)
# EPHB2 (human) = EPHB2 (human) (UniProt P29323)
# STK16 (human) = STK16 (human) (UniProt O75716)
# LYN (human) = LYN (human) (UniProt P07948)
# PRKD2 (human) = PRKD2 (human) (UniProt Q9BZL6)
# MELK (human) = MELK (human) (UniProt Q14680)
# MAPK3 (human) = MAPK3 (human) (UniProt P27361)
# MYO3B (human) = MYO3B (human) (UniProt Q8WXR4)
# MAPK14 (human) = MAPK14 (human) (UniProt Q16539)
# MAPK9 (human) = MAPK9 (human) (UniProt P45984)
# PTK2 (human) = PTK2 (human) (UniProt Q05397)
# KIT (human) = KIT (human) (UniProt P10721)
# SRC (human) = SRC (human) (UniProt P12931)
# RPS6KA6 KD1 KD2 (human) = RPS6KA6 KD1 KD2 (human) (UniProt Q9UK32)
# GRK4 (human) = GRK4 (human) (UniProt P32298)
# NTRK1 (human) = NTRK1 (human) (UniProt P04629)
# CLK4 (human) = CLK4 (human) (UniProt Q9HAZ1)
# PLK3 (human) = PLK3 (human) (UniProt Q9H4B4)
# PRKCE (human) = PRKCE (human) (UniProt Q02156)
# SLK (human) = SLK (human) (UniProt Q9H2G2)
# BRSK1 (human) = BRSK1 (human) (UniProt Q8TDC3)
# CLK3 (human) = CLK3 (human) (UniProt P49761)
# PHKG1 (human) = PHKG1 (human) (UniProt Q16816)
# TTK (human) = TTK (human) (UniProt P33981)
# NEK2 (human) = NEK2 (human) (UniProt P51955)
# WEE1 (human) = WEE1 (human) (UniProt P30291)
# PTK6 (human) = PTK6 (human) (UniProt Q13882)
# Chain of LYN (human) (P07948 whole entry, looked up): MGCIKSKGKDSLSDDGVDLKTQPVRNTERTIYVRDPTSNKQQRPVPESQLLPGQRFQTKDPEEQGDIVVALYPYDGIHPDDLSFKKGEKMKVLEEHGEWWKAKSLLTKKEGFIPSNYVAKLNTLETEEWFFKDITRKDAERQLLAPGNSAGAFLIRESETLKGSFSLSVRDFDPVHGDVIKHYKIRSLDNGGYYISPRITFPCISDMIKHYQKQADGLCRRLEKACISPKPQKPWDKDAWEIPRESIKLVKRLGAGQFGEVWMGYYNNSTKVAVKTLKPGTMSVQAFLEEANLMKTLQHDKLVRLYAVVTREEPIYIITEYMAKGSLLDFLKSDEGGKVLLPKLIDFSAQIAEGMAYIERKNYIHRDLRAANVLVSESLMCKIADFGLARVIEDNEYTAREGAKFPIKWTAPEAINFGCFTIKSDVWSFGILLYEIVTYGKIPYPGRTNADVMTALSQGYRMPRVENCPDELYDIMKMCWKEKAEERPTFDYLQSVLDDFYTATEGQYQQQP
# Chain of NTRK1 (human) (P04629 whole entry, looked up): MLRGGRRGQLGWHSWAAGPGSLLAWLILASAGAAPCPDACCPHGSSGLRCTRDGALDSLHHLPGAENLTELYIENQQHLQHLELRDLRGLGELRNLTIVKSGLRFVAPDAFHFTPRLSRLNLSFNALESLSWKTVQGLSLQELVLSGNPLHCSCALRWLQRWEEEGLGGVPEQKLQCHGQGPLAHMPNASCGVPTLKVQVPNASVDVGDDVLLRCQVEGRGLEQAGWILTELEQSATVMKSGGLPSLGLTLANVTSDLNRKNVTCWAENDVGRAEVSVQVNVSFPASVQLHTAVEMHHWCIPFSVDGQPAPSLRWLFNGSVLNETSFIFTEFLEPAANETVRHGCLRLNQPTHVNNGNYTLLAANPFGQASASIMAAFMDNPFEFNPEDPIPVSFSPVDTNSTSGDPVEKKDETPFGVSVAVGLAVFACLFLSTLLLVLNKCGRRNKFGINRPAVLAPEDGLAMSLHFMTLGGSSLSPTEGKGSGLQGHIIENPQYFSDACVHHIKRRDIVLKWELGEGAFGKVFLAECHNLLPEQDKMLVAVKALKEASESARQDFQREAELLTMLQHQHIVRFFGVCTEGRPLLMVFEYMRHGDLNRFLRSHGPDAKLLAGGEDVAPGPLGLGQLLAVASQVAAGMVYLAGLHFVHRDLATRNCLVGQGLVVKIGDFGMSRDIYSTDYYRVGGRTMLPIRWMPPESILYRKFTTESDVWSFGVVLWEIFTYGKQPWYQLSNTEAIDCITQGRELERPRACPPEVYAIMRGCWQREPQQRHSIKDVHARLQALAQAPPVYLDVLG
# Chain of BRSK1 (human) (Q8TDC3 whole entry, looked up): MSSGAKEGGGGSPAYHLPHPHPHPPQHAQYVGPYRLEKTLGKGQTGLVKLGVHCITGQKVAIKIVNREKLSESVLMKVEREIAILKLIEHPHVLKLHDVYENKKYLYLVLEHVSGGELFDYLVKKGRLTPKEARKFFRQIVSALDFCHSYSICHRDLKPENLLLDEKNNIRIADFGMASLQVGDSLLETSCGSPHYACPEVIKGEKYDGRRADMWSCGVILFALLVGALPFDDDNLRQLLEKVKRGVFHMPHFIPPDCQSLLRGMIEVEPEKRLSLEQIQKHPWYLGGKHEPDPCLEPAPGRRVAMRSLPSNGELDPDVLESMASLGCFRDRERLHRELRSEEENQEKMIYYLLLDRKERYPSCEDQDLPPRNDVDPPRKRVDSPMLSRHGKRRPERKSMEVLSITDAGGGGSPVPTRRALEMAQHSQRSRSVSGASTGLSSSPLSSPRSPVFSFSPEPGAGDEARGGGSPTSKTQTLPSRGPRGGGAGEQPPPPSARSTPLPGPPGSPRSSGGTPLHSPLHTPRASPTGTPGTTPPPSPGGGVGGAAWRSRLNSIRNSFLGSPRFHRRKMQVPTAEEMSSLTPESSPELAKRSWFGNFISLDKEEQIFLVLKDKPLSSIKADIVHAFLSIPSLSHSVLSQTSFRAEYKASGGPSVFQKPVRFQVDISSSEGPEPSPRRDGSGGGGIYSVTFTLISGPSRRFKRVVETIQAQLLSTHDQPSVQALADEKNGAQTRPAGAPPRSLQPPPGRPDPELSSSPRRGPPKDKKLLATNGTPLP
# Chain of MAPK14 (human) (Q16539 whole entry, looked up): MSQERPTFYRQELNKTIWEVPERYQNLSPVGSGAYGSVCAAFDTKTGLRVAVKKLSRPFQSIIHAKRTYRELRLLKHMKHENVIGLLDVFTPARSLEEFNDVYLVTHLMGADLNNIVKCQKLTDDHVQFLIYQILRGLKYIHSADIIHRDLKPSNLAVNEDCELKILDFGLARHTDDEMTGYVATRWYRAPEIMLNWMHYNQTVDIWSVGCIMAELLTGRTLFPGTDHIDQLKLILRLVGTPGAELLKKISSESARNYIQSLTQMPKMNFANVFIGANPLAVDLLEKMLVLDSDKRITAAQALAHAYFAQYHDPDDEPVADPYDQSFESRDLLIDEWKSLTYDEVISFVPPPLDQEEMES
# Chain of FGFR3 (human) (P22607 whole entry, looked up): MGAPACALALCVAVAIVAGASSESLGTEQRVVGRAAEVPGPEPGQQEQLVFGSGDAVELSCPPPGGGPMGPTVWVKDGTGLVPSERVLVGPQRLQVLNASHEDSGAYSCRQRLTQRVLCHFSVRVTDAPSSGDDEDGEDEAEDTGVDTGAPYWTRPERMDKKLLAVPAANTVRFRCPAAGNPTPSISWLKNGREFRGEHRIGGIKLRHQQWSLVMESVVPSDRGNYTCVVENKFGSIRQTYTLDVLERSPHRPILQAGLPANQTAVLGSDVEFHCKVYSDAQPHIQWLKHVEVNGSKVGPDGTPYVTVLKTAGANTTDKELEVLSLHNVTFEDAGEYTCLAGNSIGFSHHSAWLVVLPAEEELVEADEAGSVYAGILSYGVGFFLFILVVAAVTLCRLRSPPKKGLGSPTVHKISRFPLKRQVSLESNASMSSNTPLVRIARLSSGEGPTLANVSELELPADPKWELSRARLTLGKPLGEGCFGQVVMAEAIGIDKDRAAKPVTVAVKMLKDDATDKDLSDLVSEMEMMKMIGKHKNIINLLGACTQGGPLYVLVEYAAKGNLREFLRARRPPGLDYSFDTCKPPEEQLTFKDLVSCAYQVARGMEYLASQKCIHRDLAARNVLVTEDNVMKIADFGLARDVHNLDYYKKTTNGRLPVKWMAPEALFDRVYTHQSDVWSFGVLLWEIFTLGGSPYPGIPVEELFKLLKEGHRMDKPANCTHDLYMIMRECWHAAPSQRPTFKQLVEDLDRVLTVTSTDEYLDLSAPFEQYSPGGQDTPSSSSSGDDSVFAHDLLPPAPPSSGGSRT
# Chain of PTK2 (human) (Q05397 whole entry, looked up): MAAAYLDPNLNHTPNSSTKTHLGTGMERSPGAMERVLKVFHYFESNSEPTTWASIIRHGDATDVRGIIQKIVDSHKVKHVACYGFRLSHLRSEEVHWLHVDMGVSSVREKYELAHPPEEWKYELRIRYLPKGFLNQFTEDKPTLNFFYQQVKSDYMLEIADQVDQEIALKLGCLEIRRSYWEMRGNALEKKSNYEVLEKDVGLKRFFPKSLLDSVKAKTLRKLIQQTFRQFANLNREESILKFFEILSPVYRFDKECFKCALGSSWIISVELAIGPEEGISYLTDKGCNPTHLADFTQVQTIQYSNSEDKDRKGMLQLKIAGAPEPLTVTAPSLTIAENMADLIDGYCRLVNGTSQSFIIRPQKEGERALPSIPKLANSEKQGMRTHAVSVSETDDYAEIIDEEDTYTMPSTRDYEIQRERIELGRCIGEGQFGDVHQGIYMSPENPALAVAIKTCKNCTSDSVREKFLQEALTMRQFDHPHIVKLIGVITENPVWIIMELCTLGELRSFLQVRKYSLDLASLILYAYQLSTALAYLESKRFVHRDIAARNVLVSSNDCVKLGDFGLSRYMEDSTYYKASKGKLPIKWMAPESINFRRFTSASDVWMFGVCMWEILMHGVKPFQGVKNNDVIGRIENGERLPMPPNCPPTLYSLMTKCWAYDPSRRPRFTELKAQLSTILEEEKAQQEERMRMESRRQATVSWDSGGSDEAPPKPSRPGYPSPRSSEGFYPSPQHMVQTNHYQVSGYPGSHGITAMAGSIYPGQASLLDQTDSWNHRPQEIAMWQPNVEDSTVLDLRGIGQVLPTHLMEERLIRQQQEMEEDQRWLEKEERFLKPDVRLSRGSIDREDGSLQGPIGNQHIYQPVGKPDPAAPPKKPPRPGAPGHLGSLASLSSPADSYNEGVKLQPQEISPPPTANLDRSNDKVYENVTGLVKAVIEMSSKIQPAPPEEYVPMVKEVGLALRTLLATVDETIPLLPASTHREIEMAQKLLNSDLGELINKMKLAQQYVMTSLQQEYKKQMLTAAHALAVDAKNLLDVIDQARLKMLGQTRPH
# Chain of SRMS (human) (Q9H3Y6 whole entry, looked up): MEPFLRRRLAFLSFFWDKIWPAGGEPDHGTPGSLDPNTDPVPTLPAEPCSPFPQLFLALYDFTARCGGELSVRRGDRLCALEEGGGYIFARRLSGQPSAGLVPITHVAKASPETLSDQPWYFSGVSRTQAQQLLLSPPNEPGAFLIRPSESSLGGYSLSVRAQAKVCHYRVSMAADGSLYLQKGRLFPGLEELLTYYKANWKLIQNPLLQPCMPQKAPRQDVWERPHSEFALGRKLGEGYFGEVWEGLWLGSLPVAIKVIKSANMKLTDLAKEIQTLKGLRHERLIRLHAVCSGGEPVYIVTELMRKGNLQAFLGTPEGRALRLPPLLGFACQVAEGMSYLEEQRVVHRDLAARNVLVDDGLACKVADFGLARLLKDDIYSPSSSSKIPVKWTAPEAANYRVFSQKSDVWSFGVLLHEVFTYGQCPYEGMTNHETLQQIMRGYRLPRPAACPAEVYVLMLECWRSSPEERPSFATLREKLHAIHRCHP
structure (smiles),measurement,setting,value
O=C1NC(=O)C(c2cn(CCCn3ccnc3)c3ccccc23)=C1Nc1ccccc1,residual activity,MAPKAPK2 (human),102%
same,residual activity,SRMS (human),103%
same,residual activity,PDGFRB (human),76.5%
same,residual activity,NTRK2 (human),85.8%
same,residual activity,PRKG2 (human),80.3%
same,residual activity,CSNK1A1 (human),102%
same,residual activity,MLTK (human),104%
same,residual activity,AXL (human),98.8%
same,residual activity,NTRK3 (human),40%
same,residual activity,FGFR3 (human),100%
same,residual activity,IRAK4 (human),89.5%
same,residual activity,NEK1 (human),114%
same,residual activity,PAK4 (human),97.8%
same,residual activity,CDK9 CCNT1 (human),51.3%
same,residual activity,TLK2 (human),74.1%
same,residual activity,ADRBK2 (human),97.9%
same,residual activity,EPHB2 (human),98.4%
same,residual activity,STK16 (human),110%
same,residual activity,LYN (human),103% and 96.4%
same,residual activity,PRKD2 (human),94.3%
same,residual activity,MELK (human),101%
same,residual activity,MAPK3 (human),103%
same,residual activity,MYO3B (human),36%
same,residual activity,MAPK14 (human),88.3%
same,residual activity,MAPK9 (human),101%
same,residual activity,PTK2 (human),104%
same,residual activity,KIT (human),90.2%
same,residual activity,SRC (human),100%
same,residual activity,RPS6KA6 KD1 KD2 (human),2%
same,residual activity,GRK4 (human),91.6%
same,residual activity,NTRK1 (human),104%
same,residual activity,CLK4 (human),38.9%
same,residual activity,PLK3 (human),99.8%
same,residual activity,PRKCE (human),12.8%
same,residual activity,SLK (human),39.1%
same,residual activity,BRSK1 (human),95.3%
same,residual activity,CLK3 (human),93.9%
same,residual activity,PHKG1 (human),64.6%
same,residual activity,TTK (human),121%
same,residual activity,NEK2 (human),106%
same,residual activity,WEE1 (human),95.8%
CNC(=O)c1cc(Oc2ccc(NC(=O)Nc3ccc(Cl)c(C(F)(F)F)c3)cc2)ccn1,residual activity,MAPKAPK2 (human),100%
same,residual activity,SRMS (human),107%
same,residual activity,PDGFRB (human),12%
same,residual activity,NTRK2 (human),90%
same,residual activity,PRKG2 (human),90.9%
same,residual activity,CSNK1A1 (human),97.8%
same,residual activity,MLTK (human),16.7%
same,residual activity,AXL (human),105%
same,residual activity,FGFR3 (human),89.5%
same,residual activity,IRAK4 (human),99.6%
same,residual activity,NEK1 (human),88.8%
same,residual activity,PAK4 (human),91.8%
same,residual activity,CDK9 CCNT1 (human),98.3%
same,residual activity,TLK2 (human),84.8%
same,residual activity,ADRBK2 (human),98.4%
same,residual activity,EPHB2 (human),93.2%
same,residual activity,STK16 (human),105%
same,residual activity,LYN (human),88.1% and 98.8%
same,residual activity,PRKD2 (human),96.2%
same,residual activity,MELK (human),93.6%
same,residual activity,MAPK3 (human),105%
same,residual activity,PTK6 (human),96.9%
same,residual activity,MYO3B (human),85.6%
same,residual activity,MAPK14 (human),40.2%
same,residual activity,MAPK9 (human),94.8%
same,residual activity,PTK2 (human),102%
same,residual activity,KIT (human),53.3%
same,residual activity,RPS6KA6 KD1 KD2 (human),97.3%
same,residual activity,GRK4 (human),103%
same,residual activity,NTRK1 (human),76.1%
same,residual activity,CLK4 (human),95.2%
same,residual activity,PLK3 (human),99.3%
same,residual activity,PRKCE (human),96.4%
same,residual activity,SLK (human),96.8%
same,residual activity,BRSK1 (human),95.8%
same,residual activity,CLK3 (human),99.3%
same,residual activity,PHKG1 (human),94.3%
same,residual activity,TTK (human),104%
same,residual activity,NEK2 (human),99.3%
same,residual activity,WEE1 (human),103%
CC(C)N(CCC(=O)c1ccc2ccccc2c1)Cc1ccccc1,residual activity,MAPKAPK2 (human),99%
same,residual activity,SRMS (human),103%
same,residual activity,NTRK2 (human),92.1%
same,residual activity,PRKG2 (human),139%
same,residual activity,CSNK1A1 (human),88.4%
same,residual activity,MLTK (human),90.5%
same,residual activity,AXL (human),108%
same,residual activity,NTRK3 (human),103%
same,residual activity,FGFR3 (human),99.8%
same,residual activity,IRAK4 (human),103%
same,residual activity,NEK1 (human),81.9%
same,residual activity,PAK4 (human),90.4%
same,residual activity,CDK9 CCNT1 (human),96.4%
same,residual activity,TLK2 (human),104%
same,residual activity,ADRBK2 (human),88.9%
same,residual activity,EPHB2 (human),102%
same,residual activity,STK16 (human),91.6%
same,residual activity,LYN (human),89.3% and 98.8%
same,residual activity,PRKD2 (human),98.5%
same,residual activity,MELK (human),99.4%
same,residual activity,MAPK3 (human),98.5%
same,residual activity,PTK6 (human),96.4%
same,residual activity,MYO3B (human),93.5%
same,residual activity,MAPK14 (human),94.4%
same,residual activity,MAPK9 (human),100%
same,residual activity,PTK2 (human),96.3%
same,residual activity,KIT (human),86.5%
same,residual activity,SRC (human),93.2%
same,residual activity,RPS6KA6 KD1 KD2 (human),97.4%
same,residual activity,GRK4 (human),94.9%
same,residual activity,NTRK1 (human),94.8%
same,residual activity,CLK4 (human),91.7%
same,residual activity,PLK3 (human),105%
same,residual activity,PRKCE (human),95%
same,residual activity,SLK (human),101%
same,residual activity,BRSK1 (human),98%
same,residual activity,CLK3 (human),99.6%
same,residual activity,PHKG1 (human),91.6%
same,residual activity,TTK (human),96%
same,residual activity,NEK2 (human),86.9%
same,residual activity,WEE1 (human),92.1%

# From the kinase profiling compilation of Christmann-Franck et al. (2016)
